As usually defined, the melting point is the temperature of the solid-liquid transition. What is called IC50 is the concentration at which inhibition is half-maximal.

Like-named read-outs stand apart in the source and are kept apart here.

This note sets out measurements from US8163906B2, “Dihydroquinone and dihydronaphthridine inhibitors of JNK” (Roche Palo Alto, LLC, priority 2007, dated 2012).

Data set [1] relates to TNFα-induced IL-6 production. Nature of the data set: Rat in vivo TNFα-induced IL-6 production assay, oral gavage. Also noted: species or system Female Wistar-Han rats. The conditions noted are these: 30 min prior to TNF-α i.p. challenge, plasma 90 min after challenge. The method, then: Female Wistar-Han rats procured from Charles River Laboratories were allowed to acclimate for one week prior to use and achieve an approximate body weight of 101-130 g. Rats were administered test compound (N=8 per compound) via oral gavage 30 min prior to an intraperitoneal challenge of 0.5 μg recombinant rat TNF-α (Biosource). Blood was collected via cardiocentesis 90 min after TNF-α challenge. Plasma was prepared using lithium heparin separation tubes (BD microtainer) and frozen at −80° C. until analyzed. IL-6 levels were determined using a rat specific IL-6 ELISA kit (Biosource). The percent inhibition and ED50 values (calculated as the dose of compound at which […] is 50% of the control value) were determined.

The test system of data set [2] is TNFα-induced IL-6 production. Nature of the data set: Rat in vivo TNFα-induced IL-6 production assay, subcutaneous. Also noted: species or system Female Wistar-Han rats. To be noted: plasma 90 min after TNF-α challenge. As to the method:
Female Wistar-Han rats procured from Charles River Laboratories were allowed to acclimate for one week prior to use and achieve an approximate body weight of 114-132 g. Rats were administered compound 18 (N=8 per dose) subcutaneously 30 min prior to an intra-peritoneal challenge of 0.5 μg recombinant rat TNF-α (Biosource). Blood was collected via cardiocentesis 90 min after TNF-α challenge. Plasma was prepared using lithium heparin separation tubes (BD microtainer) and frozen at −80° C. until analyzed. IL-6 levels were determined using a rat specific IL-6 ELISA kit (Biosource). The percent inhibition and ED50 values (calculated as the dose of compound at which […] is 50% of the control value) were determined.

The next data set has as its target Human JNK2α2 (Homo sapiens, UniProt P45984). Nature of the data set: JNK assay in vitro, phosphorylation of GST-ATF2 with [γ-33P] ATP (JNK2). It counts as biochemical. The conditions noted are these: ATP at Km (8 μM), 1 μM ATF2, 30° C. 30 min. As to the method:
(§1) JNK activity was measured by phosphorylation of GST-ATF2 (19-96) with [γ-^33P] ATP. […] Human JNK2α2 assay contains 1 nM enzyme, 1 μM ATF2, 8 μM ATP with 1 uCi [γ-^33P] ATP. Human JNK1α1 assay contains 2 nM enzyme, 1 μM ATF2, 6 μM ATP with 1 μCi [γ-^33P] ATP. […] ATP. The enzyme assay was carried out in the presence or absence of several compound concentrations. JNK and compound were pre-incubated for 10 min., followed by initiation of the enzymatic reaction by adding ATP and the substrate. The reaction mixture was incubated at 30° C. for 30 min. […] The incorporation of ^33P into ATF2 was quantified on a microplate scintillation counter (Packard Topcount). Compound inhibition potency on JNK was measured by IC50 value generated from ten concentration inhibition curves fitted into the 3-parameter model: % inhibition=Maximum/(1+(IC50/[Inhibitor])^slope). Data were analyzed on Microsoft Excel for parameter estimation.

The target in another data set is Human JNK1α1 (Homo sapiens, UniProt P45983). As to the kind of experiment: JNK assay in vitro, phosphorylation of GST-ATF2 with [γ-33P] ATP (JNK1). It counts as biochemical. To be noted: 1 μM ATF2, 30° C. 30 min. The method, then:
as §1

Setting [3] is: ATP at Km (6 μM), read-out: IC50 vs. JNK1.
The mark [4] stands for this setting: IC50 vs. JNK1, ATP at Km (6 μM).

Human JNK1α1, sequence (P45983 1-384 isoform P45983-2): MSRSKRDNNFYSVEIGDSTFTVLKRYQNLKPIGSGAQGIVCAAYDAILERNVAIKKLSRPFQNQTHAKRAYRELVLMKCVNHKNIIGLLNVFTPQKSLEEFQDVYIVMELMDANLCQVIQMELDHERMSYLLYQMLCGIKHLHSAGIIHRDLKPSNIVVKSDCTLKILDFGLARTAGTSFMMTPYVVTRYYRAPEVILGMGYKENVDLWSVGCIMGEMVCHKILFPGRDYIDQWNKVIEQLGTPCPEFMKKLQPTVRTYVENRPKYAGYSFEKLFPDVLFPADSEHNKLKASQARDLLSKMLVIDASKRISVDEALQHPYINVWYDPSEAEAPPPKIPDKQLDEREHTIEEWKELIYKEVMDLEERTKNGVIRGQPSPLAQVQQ
Human JNK2α2, sequence (P45984 whole entry): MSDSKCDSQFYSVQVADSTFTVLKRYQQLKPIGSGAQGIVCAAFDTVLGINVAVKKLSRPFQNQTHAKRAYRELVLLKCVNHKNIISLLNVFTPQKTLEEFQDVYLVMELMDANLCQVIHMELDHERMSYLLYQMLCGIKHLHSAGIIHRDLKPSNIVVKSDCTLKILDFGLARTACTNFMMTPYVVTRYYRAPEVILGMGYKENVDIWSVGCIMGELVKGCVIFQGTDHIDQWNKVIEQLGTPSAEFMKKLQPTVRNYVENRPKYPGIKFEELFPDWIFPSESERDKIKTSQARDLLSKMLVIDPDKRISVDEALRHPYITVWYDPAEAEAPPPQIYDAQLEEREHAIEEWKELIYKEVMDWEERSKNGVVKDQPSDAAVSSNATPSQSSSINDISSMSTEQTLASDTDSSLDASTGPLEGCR

`COC(=O)c1c(Cc2ccc(C(=O)NCCO)cc2)c(=O)c2ccc(Cl)cc2n1-c1ccccc1` [Compound 18, 7-chloro-3-[4-(2-hydroxyethylcarbamoyl)-benzyl]-4-oxo-1-phenyl-1,4-dihydroquinoline-2-carboxylic acid methyl ester]: the “IL-6 Inhibition (%)” value in data set [1] (3 mg/Kg) was 53%; in data set [2] (0.3 mg/Kg) it was 30.01%; in data set [2] (1.0 mg/Kg) it was 47.83%; in data set [2] (3.0 mg/Kg), 54.85%; in data set [2] (10 mg/Kg) it was 71.15%.

In turn, `COC(=O)c1c(Cc2ccc(S(=O)(=O)N3CCN(C)CC3)cc2)c(=O)c2ccc(Cl)cc2n1-c1ccccc1` [Compound 30, 7-chloro-3-[4-(4-methyl-piperazine-1-sulfonyl)-benzyl]-4-oxo-1-phenyl-1,4-dihydroquinoline-2-carboxylic acid methyl ester] yielded a melting point of 223.3 to 226.6 °C. Moreover, the “IL-6 Inhibition (%)” value in data set [1] (30 mg/Kg) stood at 46%. The molecule also displayed a 50% inhibitory concentration (IC50) on Human JNK2α2 of 0.0863 µM. Further, on Human JNK1α1 (setting [3]), the IC50 is 0.0355 µM.

For the molecule `COC(=O)c1c(Cc2ccc(S(=O)(=O)N(C)C)cc2)c(=O)c2ccc(Cl)cc2n1-c1ccccc1` [Compound 32, 7-Chloro-3-(4-dimethylsulfamoyl-benzyl)-4-oxo-1-phenyl-1,4-dihydroquinoline-2-carboxylic acid methyl ester], the melting point fell in the range of 218.1 to 219.5 °C. For the same molecule, half-maximal inhibition against Human JNK2α2 (IC50) was put at 0.129 µM. Further, at Human JNK1α1 (setting [3]), the IC50 stood at 0.0445 µM.

Consider `COC(=O)C(=O)NS(=O)(=O)c1ccc(Cc2c(C(=O)OC)n(-c3ccccc3)c3cc(Cl)ccc3c2=O)cc1` [Compound 64, 7-Chloro-3-[4-(methoxyoxalyl-sulfamoyl)-benzyl]-4-oxo-1-phenyl-1,4-dihydroquinoline-2-carboxylic acid methyl ester], for which the concentration for half-maximal inhibition (IC50) against Human JNK2α2 came to 2.06 µM; on Human JNK1α1 (setting [3]), 0.603 µM.

In turn, `COC(=O)c1c(Cc2ccc(S(=O)(=O)NCCO)cc2)c(=O)c2ccc(Cl)cc2n1-c1ccccc1` [Compound 65, 7-chloro-3-[4-(2-hydroxy-ethylsulfamoyl)-benzyl]-4-oxo-1-phenyl-1,4-dihydro-quinoline-2-carboxylic acid methyl ester] had a melting point of 191.5 to 193.1 °C. On Human JNK2α2, the IC50 came to 0.0957 µM. In addition, the IC50 on Human JNK1α1 (setting [3]) was 0.0328 µM.

The molecule `COC(=O)c1c(Cc2ccc(S(=O)(=O)N3CCNCC3)cc2)c(=O)c2ccc(Cl)cc2n1-c1ccccc1.O=C(O)C(F)(F)F` [Compound 66, 7-chloro-4-oxo-1-phenyl-3-[4-(piperazine-1-sulfonyl)-benzyl]-1,4-dihydro-quinoline-2-carboxylic acid methyl ester trifluoroacetate] yielded a melting point of 203 to 205 °C. For the same molecule, on Human JNK2α2, the IC50 turned out to be 0.0445 µM. The IC50 against Human JNK1α1 (setting [4]) came to 0.0181 µM.

On to `COC(=O)c1c(Cc2ccc(S(=O)(=O)N3CCNCC3)cc2)c(=O)c2ccc(Cl)cc2n1-c1ccccc1.Cl` [Compound 67, 7-Chloro-4-oxo-1-phenyl-3-[4-(piperazine-1-sulfonyl)-benzyl]-1,4-dihydroquinoline-2-carboxylic acid methyl ester bishydrochloride], for which the melting point was 214 to 215.5 °C. This molecule had an IC50 against Human JNK2α2 of 0.0485 µM. The molecule further gave an IC50 at Human JNK1α1 (setting [4]) of 0.0304 µM.

`COC(=O)c1c(Cc2ccc(S(=O)(=O)N3CCC(O)CC3)cc2)c(=O)c2ccc(Cl)cc2n1-c1ccccc1` [Compound 69, 7-Chloro-3-[4-(4-hydroxypiperidine-1-sulfonyl)-benzyl]-4-oxo-1-phenyl-1,4-dihydroquinoline-2-carboxylic acid methyl ester]: the melting point was in the range of 170 to 171 °C. Further, at Human JNK2α2, it took 0.047 µM to reach half-maximal inhibition (IC50). In addition, the IC50 at Human JNK1α1 (setting [3]) worked out at 0.0184 µM.

On to `CC(=O)c1c(Cc2ccc(S(=O)(=O)N3CCC(O)CC3)cc2)c(=O)c2ccc(Cl)cc2n1-c1ccccc1` [Compound 70, 2-Acetyl-7-chloro-3-[4-(4-hydroxypiperidine-1-sulfonyl)-benzyl]-1-phenyl-1H-quinolin-4-one], for which the melting point was 145.5 to 147.2 °C. The molecule also yielded an IC50 against Human JNK2α2 of 0.399 µM. Also, the IC50 on Human JNK1α1 (setting [3]) stood at 0.134 µM.

With `CC(=O)c1c(Cc2ccc(S(=O)(=O)N3CCN(C)CC3)cc2)c(=O)c2ccc(Cl)cc2n1-c1ccccc1` [Compound 72, 2-acetyl-7-chloro-3-[4-(4-methylpiperazine-1-sulfonyl)-benzyl]-1-phenyl-1H-quinolin-4-one], the melting point was in the range of 206.3 to 208 °C. In addition, inhibition against Human JNK2α2 was half-maximal at 0.336 µM (IC50). Also, the IC50 at Human JNK1α1 (setting [3]) was determined as 0.154 µM.

With `CCC(=O)c1c(Cc2ccc(S(=O)(=O)N3CCN(C)CC3)cc2)c(=O)c2ccc(Cl)cc2n1-c1ccccc1` [Compound 80, 7-chloro-3-[4-(4-methylpiperazin-1-sulfonyl)benzyl]-1-phenyl-2-propionyl-1H-quinlin-4-one], the melting point was over 300 °C. Also, the IC50 at Human JNK2α2 amounted to 0.477 µM. Also, on Human JNK1α1 (setting [3]), the IC50 amounted to 0.193 µM.

The molecule `COC(=O)c1c(Cc2ccc(S(=O)(=O)NCC(C)(C)O)cc2)c(=O)c2ccc(Cl)cc2n1-c1ccccc1` [Compound 85, 3-[4-(2-Hydroxy-2-methylpropylsulfonamoyl)benzyl]-4-oxo-7-chloro-1-phenyl-1,4-dihydroquinoline-2-carboxylic acid methyl ester] yielded a melting point of 240 to 242.6 °C. This molecule also registered an IC50 against Human JNK2α2 of 0.118 µM. The IC50 on Human JNK1α1 (setting [3]) stood at 0.0481 µM.

`COC(=O)c1c(Cc2ccc(S(=O)(=O)N3CC[C@H](O)C3)cc2)c(=O)c2ccc(Cl)cc2n1-c1ccccc1` [Compound 87, 7-Chloro-3-[4-(3-hydroxypyrrolidine-1-sulfonyl)-benzyl]-4-oxo-1-phenyl-1,4-dihydroquinoline-2-carboxylic acid methyl ester]: the melting point was 135 to 136 °C. Further, the IC50 against Human JNK2α2 is 0.0832 µM. Moreover, at Human JNK1α1 (setting [3]), the half-inhibitory concentration (IC50) is 0.0334 µM.

Regarding `CC(=O)c1c(Cc2ccc(S(=O)(=O)NCC(C)(C)O)cc2)c(=O)c2ccc(Cl)cc2n1-c1ccccc1` [Compound 88, 3-[4-(2-hydroxy-2-methylpropylsulfonamoyl)benzyl]-4-oxo-7-chloro-1-phenyl-2-acetyl-1,4-dihydroquinoline], the half-inhibitory concentration (IC50) was 0.84 µM against Human JNK2α2 and 0.245 µM on Human JNK1α1 (setting [3]).

`COC(=O)c1c(Cc2ccc(S(=O)(=O)N3CCC(O)CC3)cc2)c(=O)c2ccc(F)cc2n1-c1ccccc1` [Compound 110] showed a melting point of 232 to 233 °C. On Human JNK2α2, half-maximal inhibition (IC50) was put at 0.201 µM. Besides, the 50% inhibitory concentration (IC50) at Human JNK1α1 (setting [3]) was 0.0502 µM.

`COC(=O)c1c(Cc2ccc(S(=O)(=O)C(C)CO)cc2)c(=O)c2ccc(Cl)cc2n1-c1ccccc1` (stereo not drawn) [Compound 117] registered a melting point of 175.3 to 180.3 °C. The same molecule had an IC50 on Human JNK2α2 of 0.0867 µM. At Human JNK1α1 (setting [3]), the concentration for half-maximal inhibition (IC50) came to 0.032 µM.

Take `COC(=O)c1c(Cc2cnn(C)c2)c(=O)c2ccc(C(F)(F)F)nc2n1-c1ccccc1` [Compound 129, 3-(1-methyl-1H-pyrazol-4-ylmethyl)-1-4-oxo-phenyl-7-trifluoromethyl-1H-[1,8]naphthyridine-2-carboxylic acid methyl ester]: the figures for the IC50 at Human JNK2α2 and at Human JNK1α1 (setting [3]) were 0.562 µM and 0.252 µM, respectively.

Turning to `COC(=O)c1c(CN2CCC(N3CCOCC3)CC2)c(=O)c2ccc(F)cc2n1-c1ccccc1` [Compound 135], the melting point lay within 161 to 163 °C. The molecule also registered an IC50 against Human JNK2α2 of 2.1 µM. Besides, the IC50 at Human JNK1α1 (setting [3]) worked out at 0.25 µM.

`Nc1cccc(-n2c(-c3ncco3)c(Cc3ccccc3)c(=O)c3ccc(Cl)cc32)n1` [Compound 141, 1-(6-amino-pyridin-2-yl)-3-benzyl-7-chloro-2-oxazol-2-yl-1H-quinolin-4-one] showed a melting point of 279.3 to 282.8 °C. The molecule also came in with an IC50 against Human JNK2α2 of 2.09 µM. Further, at Human JNK1α1 (setting [3]), the IC50 is 0.612 µM.
